Test [1] relates to C. parvum. Format: cell-based, Cryptosporidium parvum. Conditions: compound at EC90; for Invasion Assay: Mean % Inhibition (parasites), Average: average of replicates; for effect on host cell invasion / parasitophorous vacuole formation: result in words; for Invasion Assay: Mean % Inhibition (parasites), Replicate 1a: single biological replicate 1; for Invasion Assay: Mean % Inhibition (parasites), Replicate 2a: single biological replicate 2; for Sporozoite invasion: yes/no grouping by phenotypic assay result. Here is the method: The first step in infection is host cell invasion, which involves a complex process encompassing oocyst excystation, parasite motility, adhesion, and parasitophorous vacuole formation (Fig. 2a). Our strategy to assay for compounds affecting invasion was simply to expose C. parvum to compounds immediately after triggering excystation and throughout the invasion process, and then enumerate the parasite vacuoles after 3 h, prior to allowing the parasites to replicate (summarized in Fig. 2b).
Fig. 2 Invasion Assay. a Overview of life cycle stage investigated during the invasion assay. Representative TEM images of a C. parvum oocyst and HCT-8 cell shortly after infection (Scale bar = 500 nm). b Schematic of experimental design. […] Each point represents the mean and SD of at least two biological replicates with four technical replicates per experiment.
C. parvum invasion inhibition was measured by modifying the 48 h growth inhibition assay described above. […] In parallel, Iowa strain oocysts were excysted. […] Assay plates were incubated at 37 °C and 5% CO2 for 3 h.

For test [2], the system named is C. parvum. In words: 48 h Cryptosporidium growth inhibition assay. In kind it is cell-based, Cryptosporidium parvum. As to conditions: compound added 3 h post-infection, read at 48 h. The source says:
As a first step in developing specific Cryptosporidium mode of action assays, we conducted a series of light microscopy time-lapse and transmission electron microscopy (TEM) time course experiments in order to precisely define C. parvum development within the HCT-8 cell culture system. […] This synchronicity was exploited by modifying a previously developed high-content microscopy assay. These assay modifications enabled the evaluation of several key events within the life cycle: host cell invasion, intracellular replication, host cell egress and establishment of new parasitophorous vacuoles, and sexual differentiation. […] Since the methods all used automated liquid handling, imaging, and image analysis, the assay methods all incorporated nuclear staining to monitor host cell numbers and enable recognition of HCT-8 cell monolayer damage, for example as an artifact from a malfunctioning plate washer or from unanticipated cytotoxicity of the compounds.
Human ileocecal adenocarcinoma (HCT-8) cells were purchased from ATCC (catalog# CCL-244) and cultured in ATCC modified RPMI-1640 medium (Gibco, catalog# A10491–01), supplemented with 10% heat-inactivated fetal bovine serum (Sigma-Aldrich, catalog# 12306C) and 120 U/mL penicillin and 120 μg/mL streptomycin (Gibco, catalog# 15140-122) (culture media). […] For all experiments, HCT-8 cells between passages 9 and 39 were used. C. parvum (Iowa isolate) oocysts were purchased from Bunchgrass Farm (Deary, ID), stored at 4 °C and used within 5 months of collection from an infected calf. To induce excystation, oocysts were first treated with 10 mM hydrochloric acid for 10 min at 37 °C, spun at 14,000×g for 4.5 min at room temperature, treated with 2 mM sodium taurocholate for 10 min at 16 °C, spun as before, and resuspended in culture media for infection.
A modification of a previously reported immunofluorescence assay was used to determine the EC50 and EC90 of compounds[13]. HCT-8 cells were grown to ≥ 90% confluence in 384-well plates (Corning, catalog# 353962) and infected with 5500 oocysts per well after they were induced for excystation as described above. Different concentrations of compounds were added 3 h post-infection and plates were incubated for another 45 h in a 5% CO2 incubator at 37 °C. Wells were then washed 3 times with PBS containing 111 mM D-galactose (PBS-D-gal), fixed with 4% paraformaldehyde (PFA) in PBS for 15 min at room temperature, permeabilized with 0.25% Triton X-100 for 10 min at 37 °C, washed 3 times with PBS with 0.1% Tween 20, and blocked with 4% bovine serum albumin (BSA) in PBS for 2 h at 37 °C or 4 °C overnight. Parasitophorous vacuoles were stained with 1.33 µg/mL of fluorescein-labeled Vicia villosa lectin (Vector Laboratories, catalog# FL-1231) diluted in 1% BSA in PBS with 0.1% Tween 20 for 1 h at 37 °C, followed by addition of Hoechst 33258 (AnaSpec, catalog# AS-83219) at 0.09 mM diluted in water for another 15 min at 37 °C. Wells were then washed 5 times with PBS containing 0.1% Tween 20. A Nikon Eclipse Ti2000 epifluorescence microscope with an automated stage was programmed using NIS-Elements Advanced Research software (Nikon, USA) to focus on the center of each well and take a 3 × 3 or 6 × 6 composite image using an EXi blue fluorescence microscopy camera (QImaging, Canada) with a 20 × objective (NA = 0.45). Nuclei and parasite images were separately exported as.tif files and analyzed using macros developed on the ImageJ platform (National Institutes of Health)[13].

In test [3] the test system is C. parvum. In words: Egress, motility, reinvasion assay (PV ratio). As to conditions: compound at EC90; for Egress and Reinvasion Assay: Mean PV ratios (19.5h:6h), Average: average of replicates; for Egress and Reinvasion Assay: Mean PV ratios (19.5h:6h), Replicate 1a: single replicate 1; for Egress and Reinvasion Assay: Mean PV ratios (19.5h:6h), Replicate 2a: single replicate 2; for Egress and Reinvasion Assay: Mean PV ratios (19.5h:6h), Replicate 3a: single replicate 3; for Egress and Reinvasion Assay: Mean PV ratios (19.5h:6h), Replicate 4a: single replicate 4.
Procedure: For quantification of parasitophorous vacuoles over time, HCT-8 cells were grown to greater than 90% confluence in 384-well plates and infected with 11,000 oocysts after triggering excystation.

Where [4] appears, read: Cryptosporidium parvum, HCT-8, read-out: Regular 3 to 48 h assay in vitro EC90, C. parvum in HCT-8 cells.
[5] abbreviates: read-out: Regular 3 to 48 h assay in vitro EC90, C. parvum in HCT-8 cells.

Read-outs that look alike come from different tables or passages of the source.

This note sets out measurements from article PMC6478823, “A suite of phenotypic assays to ensure pipeline diversity when prioritizing drug-like Cryptosporidium growth inhibitors” (Nature Communications, 2019).

The EC90 is the point of the concentration-response curve where the effect stands at 90%. Turning to `CN(C)C[C@H](O)Cn1c2ccc(Br)cc2c2cc(Br)ccc21` (racemic) [Wiskostatin], in the test with C. parvum [1], the “Invasion Assay: Mean % Inhibition (parasites), Average” value turned out to be 88.58%; the “effect on host cell invasion / parasitophorous vacuole formation” value is “inhibited parasitophorous vacuole formation”; the “Invasion Assay: Mean % Inhibition (parasites), Replicate 1a” value was 90%; the “Invasion Assay: Mean % Inhibition (parasites), Replicate 2a” value was determined as 92%. Further, in the test on C. parvum [1] (listed as wiskostatin), the “effect on host cell invasion / parasitophorous vacuole formation” value is reported as “active”. Moreover, the “Invasion Assay: Mean % Inhibition (parasites), Replicate 3a” value with C. parvum [1] (single biological replicate 3) came out at 82%. Moreover, the “Invasion Assay: Mean % Inhibition (parasites), Replicate 4a” value in the test with C. parvum [1] (single biological replicate 4) was determined as 90%. Also, in the test with C. parvum [2] (setting [4]), the 90% effect concentration (EC90) amounted to 11.3 µM. The EC90 in the test on C. parvum [2] (setting [5]) is 11.3 µM. Also, in the test with C. parvum [3], the “Egress and Reinvasion Assay: Mean PV ratios (19.5h:6h), Average” value is recorded as 1.04; the “Egress and Reinvasion Assay: Mean PV ratios (19.5h:6h), Replicate 1a” value is given as 1.34; the “Egress and Reinvasion Assay: Mean PV ratios (19.5h:6h), Replicate 2a” value was determined as 0.98; the “Egress and Reinvasion Assay: Mean PV ratios (19.5h:6h), Replicate 3a” value is reported as 0.80. The “Egress and Reinvasion Assay: Mean PV ratios (19.5h:6h), Replicate 4a” value in the test with C. parvum [3] stood at 1.04.
Take `Oc1c(C(Nc2ccccn2)c2cccc(Oc3ccccc3)c2)ccc2cccnc12` (centres unmarked) [A-2]: in the test on C. parvum [1], the “Invasion Assay: Mean % Inhibition (parasites), Average” value was -15.19%; the “Invasion Assay: Mean % Inhibition (parasites), Replicate 1a” value is -13%; the “Invasion Assay: Mean % Inhibition (parasites), Replicate 2a” value is listed as -17%; the Sporozoite invasion result is “no”. Moreover, the EC90 in the test with C. parvum [2] (setting [5]) was 1.34 µM. Moreover, in the test on C. parvum [3], the “Egress and Reinvasion Assay: Mean PV ratios (19.5h:6h), Average” value was 0.69; the “Egress and Reinvasion Assay: Mean PV ratios (19.5h:6h), Replicate 1a” value amounted to 0.67; the “Egress and Reinvasion Assay: Mean PV ratios (19.5h:6h), Replicate 2a” value was determined as 0.71.
As for `Cc1cccc(-n2ncc3c(=O)[nH]c(-n4nc(C)cc4NC(=O)C4CCCC4)nc32)c1` [C-5], in the test on C. parvum [1], the “Invasion Assay: Mean % Inhibition (parasites), Average” value is 13.07%; the “Invasion Assay: Mean % Inhibition (parasites), Replicate 1a” value came to 31%; the “Invasion Assay: Mean % Inhibition (parasites), Replicate 2a” value was -4.39%. Further, the EC90 in the test with C. parvum [2] (setting [5]) worked out at 4.99 µM. In the test with C. parvum [3], the “Egress and Reinvasion Assay: Mean PV ratios (19.5h:6h), Average” value is 0.31; the “Egress and Reinvasion Assay: Mean PV ratios (19.5h:6h), Replicate 1a” value is 0.20; the “Egress and Reinvasion Assay: Mean PV ratios (19.5h:6h), Replicate 2a” value is 0.42.
Consider `[H]/N=C(/NCCCCC)N/N=C/c1c[nH]c2ccc(OC)cc12` [Tegaserod], for which, in the test with C. parvum [1], the “Invasion Assay: Mean % Inhibition (parasites), Average” value was 13.93%; the “Invasion Assay: Mean % Inhibition (parasites), Replicate 1a” value was determined as 26%; the “Invasion Assay: Mean % Inhibition (parasites), Replicate 2a” value was 2%; the Sporozoite invasion result is given as “no”. In the test on C. parvum [2] (setting [4]), the EC90 was 10.3 µM. Moreover, in the test on C. parvum [3], the “Egress and Reinvasion Assay: Mean PV ratios (19.5h:6h), Average” value was determined as 1.01; the “Egress and Reinvasion Assay: Mean PV ratios (19.5h:6h), Replicate 1a” value came out at 0.96; the “Egress and Reinvasion Assay: Mean PV ratios (19.5h:6h), Replicate 2a” value turned out to be 1.06.
As for `O=C(Nc1nc(-c2ccccn2)cs1)c1ccccc1Br` [MMV665909], in the test with C. parvum [1], the “Invasion Assay: Mean % Inhibition (parasites), Average” value was -12.01%; the “Invasion Assay: Mean % Inhibition (parasites), Replicate 1a” value is recorded as -8.54%; the “Invasion Assay: Mean % Inhibition (parasites), Replicate 2a” value was -15%. For the same compound, in the test with C. parvum [2] (setting [5]), the EC90 is 6.84 µM. Also, in the test on C. parvum [3], the “Egress and Reinvasion Assay: Mean PV ratios (19.5h:6h), Average” value is on record as 0.41; the “Egress and Reinvasion Assay: Mean PV ratios (19.5h:6h), Replicate 1a” value was 0.61; the “Egress and Reinvasion Assay: Mean PV ratios (19.5h:6h), Replicate 2a” value worked out at 0.21.
In the case of `Cc1cn(-c2cc(NC(=O)c3ccc(C)c(Nc4nccc(-c5cccnc5)n4)c3)cc(C(F)(F)F)c2)cn1` [Nilotinib], in the test on C. parvum [1], the “Invasion Assay: Mean % Inhibition (parasites), Average” value is on record as -21.88%; the “Invasion Assay: Mean % Inhibition (parasites), Replicate 1a” value is reported as -24%; the “Invasion Assay: Mean % Inhibition (parasites), Replicate 2a” value was -19%. In the test with C. parvum [2] (Cryptosporidium parvum, read-out: Regular 3 to 48 h assay in vitro EC90, C. parvum in HCT-8 cells), the EC90 stood at 16.5 µM. In the test on C. parvum [3], the “Egress and Reinvasion Assay: Mean PV ratios (19.5h:6h), Average” value is given as 1.05; the “Egress and Reinvasion Assay: Mean PV ratios (19.5h:6h), Replicate 1a” value is 1.50; the “Egress and Reinvasion Assay: Mean PV ratios (19.5h:6h), Replicate 2a” value is reported as 1.54; the “Egress and Reinvasion Assay: Mean PV ratios (19.5h:6h), Replicate 3a” value is reported as 0.60. For the same compound, the “Egress and Reinvasion Assay: Mean PV ratios (19.5h:6h), Replicate 4a” value in the test with C. parvum [3] came to 0.54.
